Source: US10487088B2, “Tricyclic compound serving as immunomodulator” (Chia Tai Tianqing Pharmaceutical Group Co., Ltd., priority 2016, dated 2019)

Biological target: T1, recombinant human IDO1 enzyme (Homo sapiens, UniProt P14902)
T1 construct: purchased NTRC NTRC-hlDO-10K
Experiment: In vitro hIDO1 enzyme activity test (NFK Green fluorescence)
Format: biochemical
Settings: recombinant human IDO1, L-tryptophan substrate, pH 6.5
Experimental: The change of NFK production was detected by using the NFK Green™ fluorescent molecule, which is the metabolite of the IDO1 enzyme, and the IC50 value of the compound was used as an index, to evaluate the inhibitory effect of the compound on the recombinant human IDO1 enzyme.
IDO1 Enzyme Activity Assay Kit, NTRC # NTRC-hlDO-10K;
The compound was diluted to 1 mM in DMSO, and then diluted 3-fold in duplicate wells, with 10 gradients. 48 μL of 50 mM phosphate buffer (pH 6.5) was transferred to the compound plate via Bravo automated liquid handling platform. 2 μL of the diluted solution of the compound in DMSO was then added and mixed, followed by transferring 10 μL therein to an enzyme reaction plate.
The IDO1 enzyme was diluted to 20 nM in the reaction buffer (50 mM phosphate buffer pH 6.5, 0.1% Tween-20, 2% glycerol, 20 mM ascorbic acid, 20 μg/mL catalase and 20 μM methylene blue), and 20 μL of the solution was transferred to an enzyme reaction plate and incubated at 23° C. for 30 min. The reaction was started by adding 10 μL of 400 μM L-type tryptophan substrate and incubated at 23° C. for 90 min. 10 μL of NFK Green™ fluorescent dye was added, and the plate was sealed with the sealing film, incubated at 37° C. for 4 h, and then read on Envision Multimode Plate Reader (Ex 400 nm/Em 510 nm).
The control wells with the IDO1 enzyme but no compound was set as 0% inhibition, and the control wells without the IDO1 enzyme was set as 100% inhibition, and the IC50 value of the compound was calculated by analyzing the data with XLFit 5.

T1 sequence (P14902 whole entry): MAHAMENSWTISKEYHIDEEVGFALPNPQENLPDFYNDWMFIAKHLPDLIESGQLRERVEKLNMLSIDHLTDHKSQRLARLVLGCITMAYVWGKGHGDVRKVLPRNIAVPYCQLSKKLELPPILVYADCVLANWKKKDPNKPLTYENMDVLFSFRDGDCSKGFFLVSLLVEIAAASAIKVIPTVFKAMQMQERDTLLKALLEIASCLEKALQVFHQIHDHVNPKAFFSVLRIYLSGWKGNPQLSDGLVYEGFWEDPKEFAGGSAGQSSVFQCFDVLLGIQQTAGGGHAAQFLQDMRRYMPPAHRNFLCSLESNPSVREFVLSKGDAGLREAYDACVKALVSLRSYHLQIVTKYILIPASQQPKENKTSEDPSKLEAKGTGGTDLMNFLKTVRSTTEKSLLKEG

| Structure (SMILES) | IC50 [µM] |
| --- | --- |
| O=C(O)C1CCCC(C2c3sccc3-c3cncn32)C1 (single isomer, unassigned) [Example 97, 3-(8H-thieno[3,4]pyrrolo[1,5-a]imidazol-8-yl) cyclohexylcarboxylic acid] | > 10 |
| OC1CC(C2c3sccc3-c3cncn32)C1 (single isomer, unassigned) [Example 58, 3-(8H-thieno[3,4]pyrrolo[1,5-a]imidazol-8-yl)cyclobutanol] | 2.1 |
| O[C@@H](C[C@@H]1c2sccc2-c2cncn21)C1CCC(F)(F)CC1 [Example 47, (1S)-1-(4,4-difluorocyclohexyl)-2-((R)-8H-thieno[3,4]pyrrolo[1,5-a]imidazol-8-yl)ethanol] | 1.68 |
| O=C(O)C1CCCC(C2c3sccc3-c3cncn32)C1 (single isomer, unassigned) [Example 100, 3-(8H-thieno[3,4]pyrrolo[1,5-a]imidazol-8-yl) cyclohexylcarboxylic acid] | 6.77 |
| CC(C)CC1c2sccc2-c2cncn21 (stereo not drawn) [Example 24, 8-isobutyl-8H-thieno[3′,2′:3,4]pyrrolo[1,2-c]imidazole] | 1.03 |
| OC(CC1c2sccc2-c2cncn21)C1CCCCC1 (single isomer, unassigned) [Example 5, cyclohexyl-2-(8H-thieno[3′,2′:3,4]pyrrolo[1,2-c]imidazol-8-yl)ethanol] | 5.03 |
| OC1CCCC(C2c3sccc3-c3cncn32)C1 (single isomer, unassigned) [Example 70, 3-(8H-thieno[3′,2′:3,4]pyrrolo[1,2-c]imidazol-8-yl)cyclohexanol] | 1.09 |
| O[C@@H]1CCCC1[C@H]1c2sccc2-c2cncn21 (single isomer, unassigned) [Example 108, (trans)-2-(8H-thieno[3′,2′:3,4]pyrrolo[1,2-c]imidazol-8-yl)cyclopentanol] | > 10 |
| c1ccc(N2CCC(C3c4sccc4-c4cncn43)CC2)cc1 (single isomer, unassigned) [Example 87, 8-(1-phenylpiperidin-4-yl)-8H-thieno[3′,2′:3,4]pyrrolo[1,2-c]imidazole] | > 10 |
| c1cc2c(s1)C(C13CCC(CC1)CC3)n1cncc1-2 (single isomer, unassigned) [Example 49, 8-(4-bicyclo[2.2.2]octyl)-8H-thieno[3,4]pyrrolo[1,5-a]imidazole] | > 10 |
| c1cc2c(s1)C(C1CCCOC1)n1cncc1-2 (single isomer, unassigned) [Example 36, 8-(tetrahydro-2H-pyran-3-yl)-8H-thieno[3′,2′:3,4]pyrrolo[1,2-c]imidazole] | 2.43 |
| OCCC1c2sccc2-c2cncn21 (stereo not drawn) [Example 11, 2-(8H-thieno[3′,2′:3,4]pyrrolo[1,2-c]imidazol-8-yl)ethanol] | 5.98 |
| OC1CCCC(C2c3sccc3-c3cncn32)C1 (single isomer, unassigned) [Example 71, 3-(8H-thieno[3′,2′:3,4]pyrrolo[1,2-c]imidazol-8-yl)cyclohexanol] | > 10 |
| c1ccc(C2CCC(C3c4sccc4-c4cncn43)CC2)cc1 (single isomer, unassigned) [Example 89, 8-(4-phenylcyclohexyl)-8H-thieno[3′,2′:3,4]pyrrolo[1,2-c]imidazole] | > 10 |
| OC1CCCC(C2c3sccc3-c3cncn32)C1 (single isomer, unassigned) [Example 68, 3-(8H-thieno[3′,2′:3,4]pyrrolo[1,2-c]imidazol-8-yl)cyclohexanol] | 1.83 |
| OC1CCCC(C2c3sccc3-c3cncn32)C1 (single isomer, unassigned) [Example 66, 3-(8H-thieno[3′,2′:3,4]pyrrolo[1,2-c]imidazol-8-yl)cyclohexanol] | > 10 |
| c1ccc2c(c1)CCC(C1c3sccc3-c3cncn31)C2 (single isomer, unassigned) [Example 57, 8-tetrahydronaphthalen-2-yl-8H-thieno[3,4]pyrrolo[1,5-a]imidazole] | 0.886 |
| OCC1(C2c3sccc3-c3cncn32)CCCCC1 (single isomer, unassigned) [Example 43, [1-(8H-thieno[3,4]pyrrolo[1,5-a]imidazol-8-yl)cyclohexyl]methanol] | > 10 |
| Fc1cc2c(s1)C(CCC1CCCCC1)n1cncc1-2 (single isomer, unassigned) [Example 19, 8-(2-cyclohexylethyl)-2-fluoro-8H-thieno[3′,2′:3,4]pyrrolo[1,2-c]imidazole] | > 10 |
| OC1CCC(C2c3sccc3-c3cncn32)CC1 (single isomer, unassigned) [Example 116, 4-(8H-thieno[3,4]pyrrolo[1,5-a]imidazol-8-yl)-cyclohexanol] | > 10 |

| Structure (SMILES) | IC50 [µM] |
| --- | --- |
| c1cc2c(s1)C(C1CCCOC1)n1cncc1-2 (single isomer, unassigned) [Example 35, 8-(tetrahydro-2H-pyran-3-yl)-8H-thieno[3′,2′:3,4]pyrrolo[1,2-c]imidazole] | 2.81 |
| O=C(O)C1CCCC(C2c3sccc3-c3cncn32)C1 (single isomer, unassigned) [Example 98, 3-(8H-thieno[3,4]pyrrolo[1,5-a]imidazol-8-yl) cyclohexylcarboxylic acid] | > 10 |
| Fc1cc2c(s1)C(CCC1CCCCC1)n1cncc1-2 (single isomer, unassigned) [Example 20, 8-(2-cyclohexylethyl)-2-fluoro-8H-thieno[3′,2′:3,4]pyrrolo[1,2-c]imidazole] | 0.586 |
| c1ccc2c(c1)CCC(C1c3sccc3-c3cncn31)C2 (single isomer, unassigned) [Example 56, 8-tetrahydronaphthalen-2-yl-8H-thieno[3,4]pyrrolo[1,5-a]imidazole] | 0.851 |
| OC1CC(C2c3sccc3-c3cncn32)C1 (single isomer, unassigned) [Example 59, 3-(8H-thieno[3,4]pyrrolo[1,5-a]imidazol-8-yl)cyclobutanol] | > 10 |
| OC1CCCCC1C1c2sccc2-c2cncn21 (single isomer, unassigned) [Example 52, 2-(8H-thieno[3,4]pyrrolo[1,5-a]imidazol-8-yl)cyclohexanol] | 0.676 |
| CC1(C)CC(C2c3sccc3-c3cncn32)CCO1 (single isomer, unassigned) [Example 80, 8-(2,2-dimethyltetrahydropyran-4-yl)-8H-thieno[3,4]pyrrolo[1,5-a]imidazole] | 5.05 |
| O=C1CC[C@H]2C[C@@H]([C@@H](O)CC3c4sccc4-c4cncn43)CCN12 (single isomer, unassigned) [Example 26] | > 10 |
| CC(C)(C(O)C1CCCCC1)C1c2sccc2-c2cncn21 (single isomer, unassigned) [Example 121, 1-cyclohexyl-2-methyl-2-(8H-thieno[3,4]pyrrolo[1,5-a]imidazol-8-yl)-propan-1-ol] | 0.585 |
| c1ccc2c(C3CCC(C4c5sccc5-c5cncn54)CC3)ccnc2c1 (single isomer, unassigned) [Example 92, 5-(4-(quinolin-4-yl)cyclohexyl)-8H-thieno[3′,2′:3,4]pyrrolo[1,2-c]imidazole] | 0.686 |
| OC1CCC(C2c3sccc3-c3cncn32)CC1 (single isomer, unassigned) [Example 118, 4-(8H-thieno[3,4]pyrrolo[1,5-a]imidazol-8-yl)-cyclohexanol] | 7.29 |
| CC1(C)CC(C2c3sccc3-c3cncn32)CCO1 (single isomer, unassigned) [Example 81, 8-(2,2-dimethyltetrahydropyran-4-yl)-8H-thieno[3,4]pyrrolo[1,5-a]imidazole] | 8.27 |
| c1ccc2c(c1)CCC(C1c3sccc3-c3cncn31)C2 (single isomer, unassigned) [Example 55, 8-tetrahydronaphthalen-2-yl-8H-thieno[3,4]pyrrolo[1,5-a]imidazole] | > 10 |
| OC1CCCCC1C1c2sccc2-c2cncn21 (single isomer, unassigned) [Example 82] | 1.55 |
| O=C(O)C1CCCC(C2c3sccc3-c3cncn32)C1 (single isomer, unassigned) [Example 104, 3-(8H-thieno[3,4]pyrrolo[1,5-a]imidazol-8-yl) cyclohexylcarboxylic acid] | > 10 |
| CC(C)(C(O)C1CCCCC1)C1c2sccc2-c2cncn21 (single isomer, unassigned) [Example 122, 1-cyclohexyl-2-methyl-2-(8H-thieno[3,4]pyrrolo[1,5-a]imidazol-8-yl)-propan-1-ol] | > 10 |
| CC(C)(C)C1c2sccc2-c2cncn21 (stereo not drawn) [Example 23, 8-(tert-butyl)-8H-thieno[3′,2′:3,4]pyrrolo[1,2-c]imidazole] | 5.26 |
| O=C(O)C1CCCC(C2c3sccc3-c3cncn32)C1 (single isomer, unassigned) [Example 101, 3-(8H-thieno[3,4]pyrrolo[1,5-a]imidazol-8-yl) cyclohexylcarboxylic acid] | > 10 |
| CC1(C)CC(C2c3sccc3-c3cncn32)CCO1 (single isomer, unassigned) [Example 79, 8-(2,2-dimethyltetrahydropyran-4-yl)-8H-thieno[3,4]pyrrolo[1,5-a]imidazole] | > 10 |
